Measurements reported in patent publication US20050233963A1 (priority 2000, published 2005).

Tests used:
SN hantavirus = format: cell-based, Sin Nombre virus
hsc70 [1] = molecular target: T1, hsc70 (Bos taurus, UniProt P19120); test: Hsc70 ATPase assay; format: biochemical; design: purchased Stressgen; details: 28 nM hsc70, 0-176 nM UBP, 1 hr at 30° C.
Description: ADP was separated from ATP by thin-layer chromatography and quantified using a phosphorimager. […] The data are represented as the percent ATP hydrolysis and are plotted as a function of time from 0-75 minutes.
ATPase assays were performed essentially as described (Liberek et al., 1991, J. Biol. Chem. 266:14491-14496). […] The reactions were carried out at 30° C. in ATPase buffer (30 mM 4-(-2 hydroxymethl)-1-piperazineethanesulfonic acid (HEPES) buffer pH 7.5, 40 mM KCl, 50 mM NaCl, 5 mM MgCl2, and 2 mM dithiothreitol). […] A 5 μl aliquot of each reaction was directly loaded onto a polyethylamine-cellulose (PEI)-thin layer sheet (Selecto Scientific, Suwanee, Ga.). The products were separated from the substrate by chromatography using 1 M formic acid/1 M LiCl (1:1, vol/vol) as a vehicle. The location of ADP and ATP on the plates was visualized by use of a Phosphorimager (Molecular Dynamics, San Jose, Calif.). […] Five μl aliquots of each reaction were taken at time points of 0, 15, 30, 45, 60, 75 minutes. The samples were analyzed as previously described. Data were quantified and expressed as the percent ATP hydrolysis.

HIV-1 = details: overexpression in virus-producing cells (Callahan et al., 1998); cited from earlier work
hsc70 [2] = molecular target: T1, hsc70; test: Refolding of heat-denatured luciferase by hsc70; details: 28 nM hsc70, 1 mM ATP, 0 to 100 minutes at 30° C.
hsc70 [3] = molecular target: T1, hsc70; test: GST-UBP/hsc70 pull down assay with NaCl washes; format: binding; design: purchased Stressgen; details: washes of increasing NaCl, up to 0.5 M NaCl
Description: (§1) FIG. 13A: Thirty μg of HeLa cell lysate was separated by SDS-PAGE in three identical lanes, blotted to nitrocellulose and probed with either, no probe (none), GST alone, or GST-UBP. The far-western blot was then developed with anti-GST antibody to reveal bands which interact with UBP. The arrow to the right indicates a 70 kD band detected by the GST-UBP fusion. The numbers to the left of each blot represent molecular weights in kilodaltons. […] FIG. 13C, Samples from the GST-UBP pull down assay were analyzed by western blot for the presence hsc70. At the bottom of the gel, the contents of each reaction are indicated by the plus symbols. The NaCl concentration of the washing buffer (100, 200, 300, and 500 mM) is indicated at the top of each lane. The arrow to the right of the blot indicates the position of the hsc70 band.
Either GST or GST-UBP protein was incubated with a 100 μl bed volume of beads in a total volume of 300 μl of binding buffer at 4° C. with gentle rocking for 2 hours. The beads were washed and then blocked with 5% BSA in binding buffers. The beads were washed in binding buffer then incubated with 200 ng of hsc70 in binding buffer for 2 hours at 4° C. […] The samples were heated to 80° C. for 3 minutes then supernatants recovered by centrifugation were analyzed by western blot for hsc70.

hsc70 [4] = molecular target: T1, hsc70; test: UBP far-western analysis on hsc70; format: binding; design: purchased Stressgen; details: GST fusions as probe
Description: as §1
The term “hsc70” is used when referring to both hsp70 and its nearly identical constitutive counterpart, hsc70. […] The numbers to the left of the blots indicate the molecular weights in kilodaltons. The diagram below the blots indicates regions of UBP contained in each fusion construct. The column to the right summarizes the results, where a plus symbol indicates binding and a minus symbol indicates no binding.
Western blots were performed using standard techniques. […]

hsp90 = test: UBP far-western analysis on hsp90; format: binding; details: purified hsp90
Description: The numbers to the left of the blots indicate the molecular weights in kilodaltons. The regions of UBP contained in each fusion construct are diagrammed below the blots. The right column summarizes the results: a plus symbol indicates binding and a minus symbol indicates no binding.
Western blots were performed using standard techniques. Briefly, 30 μg HeLa cytoplasmic extract or 20 ng of hsc70, hsp70, or hsp90 were denatured in 1×SDS sample buffer. The samples were loaded on a 10% polyacrylamide gel. Separated protein was transferred to nitrocellulose membranes. The membranes were blocked in 5% dry milk protein in TBS (20 mM Tris [pH 7.4], 100 mM NaCl) for 45 min. […] Primary antibody, either anti-hsp70 or hsp90 monoclonal antibodies, or anti-UBP rabbit polyclonal antibody was incubated with the blots at appropriate concentrations (1:1000 dilutions for each) in 5% milk protein in TBS for 2 hours at 4° C. with gentle rocking. The membranes were washed with TBS for 10 minutes. Secondary antibody, either alkaline phosphatase conjugated goat anti-mouse IgG or alkaline phosphatase conjugated goat anti-rabbit IgG diluted at 1:5000 in 5% Milk in TBS, was incubated with the blots for 2 hours at 4° C. with gentle rocking. […]

T1 sequence (P19120 2-650 limits assumed): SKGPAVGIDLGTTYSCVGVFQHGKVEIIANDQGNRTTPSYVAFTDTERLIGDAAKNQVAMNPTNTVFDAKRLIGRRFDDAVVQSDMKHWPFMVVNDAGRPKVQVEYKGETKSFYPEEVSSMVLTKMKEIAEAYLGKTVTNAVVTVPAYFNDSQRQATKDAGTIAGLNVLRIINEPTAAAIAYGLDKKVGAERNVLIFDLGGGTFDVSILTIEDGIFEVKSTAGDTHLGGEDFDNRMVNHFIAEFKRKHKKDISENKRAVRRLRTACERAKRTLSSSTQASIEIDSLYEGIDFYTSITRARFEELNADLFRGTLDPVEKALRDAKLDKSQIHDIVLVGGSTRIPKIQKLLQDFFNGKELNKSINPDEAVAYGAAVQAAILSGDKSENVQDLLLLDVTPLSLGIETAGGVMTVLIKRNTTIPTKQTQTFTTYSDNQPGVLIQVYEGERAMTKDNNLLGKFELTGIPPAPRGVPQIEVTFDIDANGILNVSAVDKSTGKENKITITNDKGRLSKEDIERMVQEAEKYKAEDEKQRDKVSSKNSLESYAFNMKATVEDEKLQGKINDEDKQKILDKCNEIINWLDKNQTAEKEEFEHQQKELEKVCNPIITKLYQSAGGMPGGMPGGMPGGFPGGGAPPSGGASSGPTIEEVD

O=c1c(O)c(-c2ccc(O)c(O)c2)oc2cc(O)cc(O)c12 [quercetin]
inhibition of viral RNA titers (SN hantavirus): 7.3 fold | viral RNA titers after heat shock (SN hantavirus): did not have increased levels of viral RNA titers

UBP: Viral protein U (Vpu) binding protein, cellular tetratricopeptide repeat (TPR) co-chaperone family member
hsc70-mediated hydrolysis of ATP (hsc70 [1]): negatively affected | HIV-1 virion release (HIV-1): significant reduction | inhibition of hs70-dependent refolding of luciferase (hsc70 [2]): about 30% | stability of UBP-hs70 interaction to NaCl washes (hsc70 [3]): maintained even in the presence of relatively high salt concentrations | interaction with hsc70 (hsc70 [4]): does stably associate | association with hsp90 (hsp90): could associate
